The NIST ThermoML archive (doi:10.1016/j.jct.2006.07.025)

Experiment: xn = mol fraction of the nth substance listed
Conditions: for surface tension liquid-gas: Pendant drop shape; for mass density: 101 kPa, Liquid, Vibrating tube method

Cc1ccc(C)c(C)c1 [1,2,4-trimethylbenzene] + CCCCOC(C)=O
Conditions | mass density [kg/m3] | surface tension liquid-gas [mN/m]
298.15 K, x2 = 0 | 871.66 | 29.17
298.15 K, x2 = 0.0563 | 871.92 | –
298.15 K, x2 = 0.0998 | – | 28.68
298.15 K, x2 = 0.1045 | 872.14 | –
298.15 K, x2 = 0.1496 | 872.35 | –
298.15 K, x2 = 0.1996 | 872.58 | –
298.15 K, x2 = 0.2001 | – | 28.2
298.15 K, x2 = 0.2533 | 872.82 | –
298.15 K, x2 = 0.2994 | – | 27.73
298.15 K, x2 = 0.2998 | 873.03 | –
298.15 K, x2 = 0.3552 | 873.27 | –
298.15 K, x2 = 0.3998 | 873.46 | –
298.15 K, x2 = 0.4003 | – | 27.25
298.15 K, x2 = 0.45 | 873.68 | –
298.15 K, x2 = 0.4958 | – | 26.78
298.15 K, x2 = 0.5001 | 873.9 | –
298.15 K, x2 = 0.5503 | 874.11 | –
298.15 K, x2 = 0.5995 | 874.32 | –
298.15 K, x2 = 0.6001 | – | 26.33
298.15 K, x2 = 0.6495 | 874.54 | –
298.15 K, x2 = 0.6998 | 874.75 | –
298.15 K, x2 = 0.6999 | – | 25.93
298.15 K, x2 = 0.7495 | 874.97 | –
298.15 K, x2 = 0.7998 | – | 25.57
298.15 K, x2 = 0.7999 | 875.2 | –
298.15 K, x2 = 0.8499 | 875.43 | –
298.15 K, x2 = 0.8989 | 875.67 | –
298.15 K, x2 = 0.8997 | – | 25.23
298.15 K, x2 = 0.9478 | 875.91 | –
303.15 K, x2 = 0 | 867.61 | 28.67
303.15 K, x2 = 0.1001 | 867.99 | 28.18
303.15 K, x2 = 0.2009 | 868.38 | 27.69
303.15 K, x2 = 0.3006 | 868.73 | 27.22
303.15 K, x2 = 0.4001 | 869.1 | 26.73
303.15 K, x2 = 0.5004 | 869.45 | 26.27
303.15 K, x2 = 0.6006 | 869.81 | 25.8
303.15 K, x2 = 0.7001 | 870.15 | 25.4
303.15 K, x2 = 0.7997 | 870.43 | 25.03
303.15 K, x2 = 0.9 | 870.91 | 24.7
308.15 K, x2 = 0 | 863.59 | 28.17
308.15 K, x2 = 0.1005 | 863.87 | 27.67
308.15 K, x2 = 0.1998 | 864.16 | 27.18
308.15 K, x2 = 0.3004 | 864.42 | 26.7
308.15 K, x2 = 0.4003 | 864.67 | 26.21
308.15 K, x2 = 0.5007 | 864.93 | 25.75
308.15 K, x2 = 0.5991 | 865.17 | 25.28
308.15 K, x2 = 0.6995 | 865.43 | 24.87
308.15 K, x2 = 0.7999 | 865.68 | 24.5
308.15 K, x2 = 0.9004 | 865.94 | 24.16
313.15 K, x2 = 0 | 859.54 | 27.67
313.15 K, x2 = 0.0499 | 859.66 | –
313.15 K, x2 = 0.1002 | 859.76 | 27.12
313.15 K, x2 = 0.1503 | 859.87 | –
313.15 K, x2 = 0.1995 | 859.98 | 26.55
313.15 K, x2 = 0.25 | 860.08 | –
313.15 K, x2 = 0.3 | 860.19 | 26.02
313.15 K, x2 = 0.35 | 860.28 | –
313.15 K, x2 = 0.3996 | 860.37 | 25.48
313.15 K, x2 = 0.4499 | 860.46 | –
313.15 K, x2 = 0.5002 | 860.56 | 24.99
313.15 K, x2 = 0.5499 | 860.65 | –
313.15 K, x2 = 0.5998 | 860.73 | 24.55
313.15 K, x2 = 0.6503 | 860.82 | –
313.15 K, x2 = 0.6999 | 860.91 | 24.2
313.15 K, x2 = 0.7499 | 861.01 | –
313.15 K, x2 = 0.8004 | 861.1 | 23.9
313.15 K, x2 = 0.85 | 861.21 | –
313.15 K, x2 = 0.9005 | 861.33 | 23.62
313.15 K, x2 = 0.9496 | 861.45 | –
